This is an account of results in patent US20260226086A1, “COMPOUNDS AND COMPOSITIONS AS STAT3 DEGRADERS AND USES THEREOF” (REGENTS OF THE UNIVERSITY OF MICHIGAN, priority 2023, published 2026).

Holding throughout (format): cell-based
One assay has as its system SU-DHL-1 cells. The assay is described as follows: CellTiter-Glo 2.0 cell viability assay, SU-DHL-1. Particulars: 4 days. In short, it runs like this: (§1)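 IC50 derived by four-parameter nonlinear regression on triplicate luminescence data (CellTiter-Glo 2.0), normalised to untreated controls. Cells plated at 1000/well received serial compound dilutions for 4 days at 37 °C with 5% CO2.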

In another assay the test system is SUP-M2 cells. The assay is described as follows: CellTiter-Glo 2.0 cell viability assay, SUP-M2. Particulars: 4 days. In short, it runs like this:
as §1

The target in the next assay is T1, STAT3 (Homo sapiens, UniProt P40763).
T1 construct: This cell line is a clone created by using CRISPR-Cas9 to fuse HiBiT to the 3′ end of STAT3 in HeLa cells; host or cells: STAT3-HiBiT KI HeLa cell line (CRISPR-Cas9 knock-in clone)
The assay is described as follows: HiBiT assay, STAT3 degradation in STAT3-HiBiT KI HeLa cells. Particulars: read-out: STAT3 Degradation (HeLa 24 h HiBit) DC50. In short, it runs like this:
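Luminescence of endogenous HiBiT-tagged STAT3 (C-terminal knock-in, HeLa) was measured with lytic Nano-Glo detection after 24 h exposure to serially diluted compounds at 37 °C. Cells plated at 20000/well; untreated cells served as control, and triplicate means were fit by four-parameter regression to give IC50.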

Read-outs that look alike come from different tables or passages of the source. Bounds are passed on as bounds.

T1 sequence (P40763 whole entry): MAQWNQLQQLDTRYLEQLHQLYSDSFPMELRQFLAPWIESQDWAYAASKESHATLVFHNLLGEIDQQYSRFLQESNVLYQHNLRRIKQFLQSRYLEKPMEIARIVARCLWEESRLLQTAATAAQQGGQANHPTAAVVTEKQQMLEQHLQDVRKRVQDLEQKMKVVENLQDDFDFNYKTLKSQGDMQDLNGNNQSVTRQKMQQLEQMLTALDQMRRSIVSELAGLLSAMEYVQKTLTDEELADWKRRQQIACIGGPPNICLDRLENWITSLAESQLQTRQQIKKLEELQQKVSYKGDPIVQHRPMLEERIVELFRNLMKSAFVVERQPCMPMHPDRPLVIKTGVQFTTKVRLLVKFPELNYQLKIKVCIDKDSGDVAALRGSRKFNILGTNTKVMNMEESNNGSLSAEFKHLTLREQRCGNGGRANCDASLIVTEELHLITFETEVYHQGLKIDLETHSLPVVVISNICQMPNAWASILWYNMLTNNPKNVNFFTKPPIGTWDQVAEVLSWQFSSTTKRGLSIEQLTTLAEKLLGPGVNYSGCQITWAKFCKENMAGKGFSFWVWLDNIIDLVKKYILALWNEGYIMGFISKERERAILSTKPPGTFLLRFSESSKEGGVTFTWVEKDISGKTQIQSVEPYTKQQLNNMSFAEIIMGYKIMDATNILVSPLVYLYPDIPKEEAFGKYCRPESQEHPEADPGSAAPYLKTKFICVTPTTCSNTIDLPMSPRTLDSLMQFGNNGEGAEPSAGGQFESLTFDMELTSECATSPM

Take `Cc1ncsc1-c1ccc([C@H](C)NC(=O)[C@@H]2C[C@@H](O)CN2C(=O)[C@@H](n2cc(CCCCC(=O)N3CC[C@H]4CC[C@@H](C(=O)N[C@@H](CCC(N)=O)C(=O)NC(c5ccccc5)c5ccccc5)N4C(=O)[C@@H](NC(=O)c4cc5cc(C(=O)P(=O)(O)O)ccc5[nH]4)C3)nn2)C(C)(C)C)cc1` [Compound 57, (2-(((5S,8S,10aR)-8-(((S)-5-amino-1-(benzhydrylamino)-1,5-dioxopentan-2-yl)carbamoyl)-3-(5-(1-((S)-1-((2S,4R)-4-hydroxy-2-(((S)-1-(4-(4-methylthiazol-5-yl)phenyl)ethyl)carbamoyl)pyrrolidin-1-yl)-3,3-dimethyl-1-oxobutan-2-yl)-1H-1,2,3-triazol-4-yl)pentanoyl)-6-oxodecahydropyrrolo[1,2-a][1,5]diazocin-5-yl)carbamoyl)-1H-indole-5-carbonyl)phosphonic acid]: the concentration for half-maximal inhibition (IC50) in the assay with SU-DHL-1 cells and with SUP-M2 cells was 100 to 1000 nM in each case. On STAT3 (24 h), the DC50 lay in the range of 100 to 1000 nM.

For `Cc1ncsc1-c1ccc([C@H](C)NC(=O)[C@@H]2C[C@@H](O)CN2C(=O)[C@@H](n2cc(CCCCCC(=O)N3CC[C@H]4CC[C@@H](C(=O)N[C@@H](CCC(N)=O)C(=O)NC(c5ccccc5)c5ccccc5)N4C(=O)[C@@H](NC(=O)c4cc5cc(C(=O)P(=O)(O)O)ccc5[nH]4)C3)nn2)C(C)(C)C)cc1` [Compound 58, (2-(((5S,8S,10aR)-8-(((S)-5-amino-1-(benzhydrylamino)-1,5-dioxopentan-2-yl)carbamoyl)-3-(6-(1-((S)-1-((2S,4R)-4-hydroxy-2-(((S)-1-(4-(4-methylthiazol-5-yl)phenyl)ethyl)carbamoyl)pyrrolidin-1-yl)-3,3-dimethyl-1-oxobutan-2-yl)-1H-1,2,3-triazol-4-yl)hexanoyl)-6-oxodecahydropyrrolo[1,2-a][1,5]diazocin-5-yl)carbamoyl)-1H-indole-5-carbonyl)phosphonic acid], the IC50 in the assay on SU-DHL-1 cells (Homo sapiens, 96 h) was over 1000 nM; in the assay with SUP-M2 cells (SUP-M2, 96 h), 100 to 1000 nM. Besides, the DC50 on STAT3 (24 h) is over 1000 nM.

Regarding `Cc1ncsc1-c1ccc([C@H](C)NC(=O)[C@@H]2C[C@@H](O)CN2C(=O)[C@@H](n2cc(CCCCCCC(=O)N3CC[C@H]4CC[C@@H](C(=O)N[C@@H](CCC(N)=O)C(=O)NC(c5ccccc5)c5ccccc5)N4C(=O)[C@@H](NC(=O)c4cc5cc(C(=O)P(=O)(O)O)ccc5[nH]4)C3)nn2)C(C)(C)C)cc1` [Compound 59, (2-(((5S,8S,10aR)-8-(((S)-5-amino-1-(benzhydrylamino)-1,5-dioxopentan-2-yl)carbamoyl)-3-(7-(1-((S)-1-((2S,4R)-4-hydroxy-2-(((S)-1-(4-(4-methylthiazol-5-yl)phenyl)ethyl)carbamoyl)pyrrolidin-1-yl)-3,3-dimethyl-1-oxobutan-2-yl)-1H-1,2,3-triazol-4-yl)heptanoyl)-6-oxodecahydropyrrolo[1,2-a][1,5]diazocin-5-yl)carbamoyl)-1H-indole-5-carbonyl)phosphonic acid], the IC50 in the assay on SU-DHL-1 cells (Homo sapiens, 96 h) was over 1000 nM; with SUP-M2 cells (SUP-M2, 96 h), over 1000 nM. In addition, at STAT3, the DC50 was over 1000 nM.

As to `Cc1ncsc1-c1ccc([C@H](C)NC(=O)[C@@H]2C[C@@H](O)CN2C(=O)[C@@H](n2cc(CCCCCCCC(=O)N3CC[C@H]4CC[C@@H](C(=O)N[C@@H](CCC(N)=O)C(=O)NC(c5ccccc5)c5ccccc5)N4C(=O)[C@@H](NC(=O)c4cc5cc(C(=O)P(=O)(O)O)ccc5[nH]4)C3)nn2)C(C)(C)C)cc1` [Compound 60, (2-(((5S,8S,10aR)-8-(((S)-5-amino-1-(benzhydrylamino)-1,5-dioxopentan-2-yl)carbamoyl)-3-(8-(1-((S)-1-((2S,4R)-4-hydroxy-2-(((S)-1-(4-(4-methylthiazol-5-yl)phenyl)ethyl)carbamoyl)pyrrolidin-1-yl)-3,3-dimethyl-1-oxobutan-2-yl)-1H-1,2,3-triazol-4-yl)octanoyl)-6-oxodecahydropyrrolo[1,2-a][1,5]diazocin-5-yl)carbamoyl)-1H-indole-5-carbonyl)phosphonic acid], the IC50 in the assay with SU-DHL-1 cells (Homo sapiens, 96 h) is over 1000 nM; in the assay with SUP-M2 cells (SUP-M2, 96 h), over 1000 nM. Besides, the DC50 on STAT3 (24 h) is over 1000 nM.

For `Cc1ncsc1-c1ccc([C@H](C)NC(=O)[C@@H]2C[C@@H](O)CN2C(=O)[C@@H](n2cc(CCCCCCCCC(=O)N3CC[C@H]4CC[C@@H](C(=O)N[C@@H](CCC(N)=O)C(=O)NC(c5ccccc5)c5ccccc5)N4C(=O)[C@@H](NC(=O)c4cc5cc(C(=O)P(=O)(O)O)ccc5[nH]4)C3)nn2)C(C)(C)C)cc1` [Compound 61, (2-(((5S,8S,10aR)-8-(((S)-5-amino-1-(benzhydrylamino)-1,5-dioxopentan-2-yl)carbamoyl)-3-(9-(1-((S)-1-((2S,4R)-4-hydroxy-2-(((S)-1-(4-(4-methylthiazol-5-yl)phenyl)ethyl)carbamoyl)pyrrolidin-1-yl)-3,3-dimethyl-1-oxobutan-2-yl)-1H-1,2,3-triazol-4-yl)nonanoyl)-6-oxodeca-hydropyrrolo[1,2-a][1,5]diazocin-5-yl)carbamoyl)-1H-indole-5-carbonyl)phosphonic acid], the IC50 was over 1000 nM in the assay on SU-DHL-1 cells (Homo sapiens, 96 h) and over 1000 nM in the assay on SUP-M2 cells (SUP-M2, 96 h). Further, on STAT3 (24 h), the DC50 was over 1000 nM.
